From ChEMBL document CHEMBL1128138, “The synthesis, and dopamine D2 and serotonin 5-HT3 receptor affinity of 3-aza analogues (pyridyl) of 4-amino-5-chloro-2-methoxybenzamides” (Bioorg Med Chem Lett, 1995)

How the values were obtained:
[1] = target: D(2) dopamine receptor (Homo sapiens, UniProt P14416); experiment: Binding affinity towards dopamine D2 receptor
[2] = system: Rattus norvegicus; experiment: Ability to inhibit the Bezold-Jarisch reflex by i.v. administration; format: functional; settings: iv, read-out: ID50 (the source's name)

Chain of D(2) dopamine receptor (P14416 whole entry): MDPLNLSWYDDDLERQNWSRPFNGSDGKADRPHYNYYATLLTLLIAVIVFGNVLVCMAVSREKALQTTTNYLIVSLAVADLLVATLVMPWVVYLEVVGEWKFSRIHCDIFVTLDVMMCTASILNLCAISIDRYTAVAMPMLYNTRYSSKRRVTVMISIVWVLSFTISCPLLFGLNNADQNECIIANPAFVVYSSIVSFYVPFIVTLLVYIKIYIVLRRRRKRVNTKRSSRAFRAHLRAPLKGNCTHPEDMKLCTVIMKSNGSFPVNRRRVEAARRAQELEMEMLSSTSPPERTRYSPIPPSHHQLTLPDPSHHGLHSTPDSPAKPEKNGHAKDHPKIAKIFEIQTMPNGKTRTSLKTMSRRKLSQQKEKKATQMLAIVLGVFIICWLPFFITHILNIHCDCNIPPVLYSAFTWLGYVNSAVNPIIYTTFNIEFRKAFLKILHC

| Structure (SMILES) | Ki [1] | ED50 [2] |
| --- | --- | --- |
| COc1nc(N)c(Cl)cc1C(=O)NC1CC2CCCC(C1)N2Cc1ccccc1 (centres undefined) | 1.26 nM |  |
| COc1cc(N)c(Cl)cc1C(=O)NC1CC2CCC(C1)N2C (centres undefined) |  | 0.8 µg/kg |
| COc1cc(N)c(Cl)cc1C(=O)NC1CC2CCCC(C1)N2C (centres undefined) |  | 0.4 µg/kg |
| COc1cc(N)c(Cl)cc1C(=O)NC1CC2CCCC(C1)N2Cc1ccccc1 (centres undefined) | 0.251 nM |  |
